The test addresses T1, SIRT1 (Homo sapiens, UniProt Q96EB6).
T1 sequence (Q96EB6 1-747): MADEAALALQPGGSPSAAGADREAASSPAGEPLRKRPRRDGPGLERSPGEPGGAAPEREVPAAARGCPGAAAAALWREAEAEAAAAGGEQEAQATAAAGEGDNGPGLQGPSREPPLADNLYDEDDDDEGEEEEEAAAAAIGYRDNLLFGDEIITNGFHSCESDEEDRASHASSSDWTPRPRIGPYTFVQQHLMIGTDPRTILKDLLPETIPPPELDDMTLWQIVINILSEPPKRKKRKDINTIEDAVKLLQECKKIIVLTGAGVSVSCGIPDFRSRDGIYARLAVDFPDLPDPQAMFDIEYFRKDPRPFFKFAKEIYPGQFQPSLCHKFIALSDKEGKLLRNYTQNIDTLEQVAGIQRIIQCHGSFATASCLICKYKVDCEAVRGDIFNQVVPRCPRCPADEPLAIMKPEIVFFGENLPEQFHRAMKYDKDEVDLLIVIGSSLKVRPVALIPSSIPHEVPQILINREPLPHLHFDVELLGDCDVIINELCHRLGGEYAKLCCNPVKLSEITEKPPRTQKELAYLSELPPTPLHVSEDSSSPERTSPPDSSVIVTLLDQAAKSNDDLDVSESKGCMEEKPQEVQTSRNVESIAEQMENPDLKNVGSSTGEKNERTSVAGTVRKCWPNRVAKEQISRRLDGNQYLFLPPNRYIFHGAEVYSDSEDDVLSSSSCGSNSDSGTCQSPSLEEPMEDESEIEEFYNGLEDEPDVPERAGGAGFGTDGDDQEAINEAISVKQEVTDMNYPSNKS
In words: Mass spectrometry based assay to identify modulators (activators) of SIRT1 activity. The following applies: 0.5 μM peptide substrate, 120 μM βNAD+, 10 nM SIRT1, 25 minutes at 25° C.; for EC1.5: SIRT1 activation. The class given is biochemical. The text has this: A mass spectrometry based assay was used to identify modulators of SIRT1 activity. The mass spectrometry based assay utilizes a peptide having 20 amino acid residues as follows: Ac-EE-K(biotin)-GQSTSSHSK(Ac)NleSTEG-K(5TMR)-EE-NH2 (SEQ ID NO: 1) wherein K(Ac) is an acetylated lysine residue and Nle is a norleucine. The peptide is labeled with the fluorophore 5TMR (excitation 540 nm/emission 580 nm) at the C-terminus. The sequence of the peptide substrate is based on p53 with several modifications. In addition, the methionine residue naturally present in the sequence was replaced with the norleucine because the methionine may be susceptible to oxidation during synthesis and purification.
The mass spectrometry assay is conducted as follows: 0.5 μM peptide substrate and 120 μM βNAD^+ is incubated with 10 nM SIRT1 for 25 minutes at 25° C. in a reaction buffer (50 mM Tris-acetate pH 8, 137 mM NaCl, 2.7 mM KCl, 1 mM MgCl2, 5 mM DTT, 0.05% BSA). Test compounds may be added to the reaction as described above. […] After the 25 minute incubation with SIRT1, 10 μL of 10% formic acid is added to stop the reaction. Reactions are sealed and frozen for later mass spec analysis. Determination of the mass of the substrate peptide allows for precise determination of the degree of acetylation (i.e. starting material) as compared to deacetylated peptide (product).
A control for inhibition of sirtuin activity is conducted by adding 1 μL of 500 mM nicotinamide as a negative control at the start of the reaction (e.g., permits determination of maximum sirtuin inhibition). A control for activation of sirtuin activity is conducted using 10 nM of sirtuin protein, with 1 μL of DMSO in place of compound, to determine the amount of deacetylation of the substrate at a given timepoint within the linear range of the assay. This timepoint is the same as that used for test compounds and, within the linear range, the endpoint represents a change in velocity.
For the above assay, SIRT1 protein was expressed and purified as follows. […] The protein was expressed by induction with 1 mM IPTG as an N-terminal His-tag fusion protein at 18° C. overnight and harvested at 30,000×g. Cells were lysed with lysozyme in lysis buffer (50 mM Tris-HCl, 2 mM Tris[2-carboxyethyl]phosphine (TCEP), 10 μM ZnCl2, 200 mM NaCl) and further treated with sonication for 10 min for complete lysis. The protein was purified over a Ni-NTA column (Amersham) and fractions containing pure protein were pooled, concentrated and run over a sizing column (Sephadex S200 26/60 global). The peak containing soluble protein was collected and run on an Ion-exchange column (MonoQ). Gradient elution (200 mM-500 mM NaCl) yielded pure protein. This protein was concentrated and dialyzed against dialysis buffer (20 mM Tris-HCl, 2 mM TCEP) overnight. The protein was aliquoted and frozen at −80° C. until further use.
Sirtuin modulating compounds that activated SIRT1 were identified using the assay described above and are shown below in Table 1. The EC1.5 values for the activating compounds are represented by A (EC1.5≦1 uM), B (EC1.5>1 and ≦10 uM), or C (EC1.5>10 uM). The percent maximum fold activation is represented by A (Fold activation≧300%), B (Fold Activation≧150% and <300%), or C (Fold Activation<150%).

Take `O=C(Nc1ccccc1-c1nc2cccnc2s1)c1nc(-c2ccccc2)oc1CN1CCOCC1` [Compound 18, 5-(morpholinomethyl)-2-phenyl-N-(2-(thiazolo[5,4-b]pyridin-2-yl)phenyl)oxazole-4-carboxamide]: the “FOLD ACT. (percent maximum fold activation)” value is reported as “C (Fold Activation<150%)” and the EC1.5 entry is recorded as “C (EC1.5>10 uM)”.
Turning to `O=C(Nc1ccccc1-c1nc2cc(CN3CCCC3)cnc2s1)c1csc(-c2ccccc2)n1` [Compound 3, 2-phenyl-N-(2-(6-(pyrrolidin-1-ylmethyl)thiazolo[5,4-b]pyridin-2-yl)phenyl)thiazole-4-carboxamide], the “FOLD ACT. (percent maximum fold activation)” value was “B (Fold Activation≧150% and <300%)”; the EC1.5 result was “A (EC1.5≦1 uM)”.
In the case of `COCCCc1sc(-c2ccccc2)nc1C(=O)Nc1ccccc1-c1nc2cccnc2s1` [Compound 6, 5-(3-methoxypropyl)-2-phenyl-N-(2-(thiazolo[5,4-b]pyridin-2-yl)phenyl)thiazole-4-carboxamide], the “FOLD ACT. (percent maximum fold activation)” value was “B (Fold Activation≧150% and <300%)”; the EC1.5 entry was “B (EC1.5>1 and ≦10 uM)”.
For `Cc1oc(-c2ccccc2)nc1C(=O)Nc1ccccc1-c1nc2cc(CN3CCCC3)cnc2s1` [Compound 17, 5-methyl-2-phenyl-N-(2-(6-(pyrrolidin-1-ylmethyl)thiazolo[5,4-b]pyridin-2-yl)phenyl)oxazole-4-carboxamide], the “FOLD ACT. (percent maximum fold activation)” value was “A (Fold activation≧300%)”; the EC1.5 entry is “B (EC1.5>1 and ≦10 uM)”.
Turning to `COCCN1CCN(CCCc2sc(-c3ccccc3)nc2C(=O)Nc2ccccc2-c2nc3cccnc3s2)CC1` [Compound 7, 5-(3-(4-(2-methoxyethyl)piperazin-1-yl)propyl)-2-phenyl-N-(2-(thiazolo[5,4-b]pyridin-2-yl)phenyl)thiazole-4-carboxamide], the “FOLD ACT. (percent maximum fold activation)” value was “B (Fold Activation≧150% and <300%)”; the EC1.5 entry is “A (EC1.5≦1 uM)”.
As for `O=C(Nc1ccccc1-c1nc2cccnc2s1)c1nc(-c2ccccc2)sc1CCCN1CCOCC1` [Compound 13, 5-(3-morpholinopropyl)-2-phenyl-N-(2-(thiazolo[5,4-b]pyridin-2-yl)phenyl)thiazole-4-carboxamide], the “FOLD ACT. (percent maximum fold activation)” value was “B (Fold Activation≧150% and <300%)”; the EC1.5 entry is recorded as “A (EC1.5≦1 uM)”.
With `O=C(Nc1ccccc1-c1nc2cccnc2s1)c1nc(-c2ccccc2)oc1CN1CCCC1` [Compound 20, 2-phenyl-5-(pyrrolidin-1-ylmethyl)-N-(2-(thiazolo[5,4-b]pyridin-2-yl)phenyl)oxazole-4-carboxamide], the “FOLD ACT. (percent maximum fold activation)” value was “B (Fold Activation≧150% and <300%)”; the EC1.5 entry is “B (EC1.5>1 and ≦10 uM)”.
Consider `COCCN1CCN(Cc2cnc3sc(-c4ccccc4NC(=O)c4nc(-c5ccccc5)oc4C)nc3c2)CC1` [Compound 15, N-(2-(6-((4-(2-methoxyethyl)piperazin-1-yl)methyl)thiazolo[5,4-b]pyridin-2-yl)phenyl)-5-methyl-2-phenyloxazole-4-carboxamide], for which the “FOLD ACT. (percent maximum fold activation)” value is “B (Fold Activation≧150% and <300%)”; the EC1.5 result is given as “A (EC1.5≦1 uM)”.

The values above are taken from patent US8492401B2, “Thiazolopyridine sirtuin modulating compounds” (Sirtris Pharmaceuticals, priority 2008, dated 2013).
